In publication PMC5933457, “Probing biological activity through structural modelling of ligand-receptor interactions of 2,4-disubstituted thiazole retinoids” (Bioorganic & Medicinal Chemistry, 2018):

Legend:
[1] = biological target: T1, RARβ ligand-binding domain (GST-RAR-β-LBD) (Homo sapiens, UniProt P10826); test: LanthaScreen TR-FRET RARβ co-activator (receptor binding) assay; type: biochemical; conditions: for EC50: estimated EC50, TR-FRET co-activator assay, 4 h incubation, read-out: EC50 (95% confidence range) RARβ; for binding-curve upper asymptote (coactivator recruitment), RARβ: in words, Fig. 6B
T1 construct: purchased Invitrogen
T1 sequence (P10826 183-417 limits assumed): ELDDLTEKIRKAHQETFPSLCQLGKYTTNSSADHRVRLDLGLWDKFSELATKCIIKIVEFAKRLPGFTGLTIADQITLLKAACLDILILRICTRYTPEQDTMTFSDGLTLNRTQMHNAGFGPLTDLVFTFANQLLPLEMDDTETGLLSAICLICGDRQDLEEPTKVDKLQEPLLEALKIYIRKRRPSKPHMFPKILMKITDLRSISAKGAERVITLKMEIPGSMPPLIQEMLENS
Description: These predictions were tested through a receptor-binding assay for each RAR isotype (Fig. 6), where the assay signal is dependent on two parameters: the binding affinity of ligand to the RAR LBD, and the affinity of the coactivator for the ligand-LBD complex. For this assay, binding curves and variation in level of the upper asymptote can reflect differences in co-activator affinity for the ligand-LBD complex; variation in affinity of ligand for LBD shifts the midpoint (EC50) of the binding curve, whereas changes in the level of the upper asymptote may result from changes in coactivator affinity for the ligand-LBD complex alone, or in combination with changes in affinity for ligand with LBD.[23]
The binding interaction of each retinoid with RARα, β and γ were determined in vitro by time-resolved fluorescence resonance energy transfer (TR-FRET) using the LanthaScreen TR-FRET RARα, RARβ, and RARγ co-activator assays according to the manufacturer’s (Invitrogen™) instructions.[23] This uses a terbium-labeled anti-GST antibody, a fluorescein-labeled co activator peptide, and RARα/β/γ ligand-binding domains (LBD) that are tagged with glutathione-S-transferase (GST) in a homogenous assay format. All experiments were performed in black, 384-well low-volume plates in the dark at RT with a 4 h incubation time. The final assay volume was 20 μL and all dilutions were carried out using TR-FRET assay buffer, with a final DMSO concentration of 1%. A mixture of either 3.5 nM GST-RAR-α-LBD or 2.5 nM GST-RAR-β-LBD or 3 nM GST-RAR-γ-LBD with 62.5 nM Tb-anti GST antibody and 30 μM fluorescein-labeled peptide and retinoid or DMSO control was added to each of the wells. Each ligand assay was performed in duplicate and measured using a PHERAstar FS Microplate Reader (BMG Labtech, Ortenberg, Germany) with instrument settings as described in the manufacturer’s instructions for LanthaScreen assays. The TR-FRET signal was expressed as the ratio of the signals at 520 nm and 490 nm. The data were fitted to a three-parameter ligand-binding curve using SigmaPlot (version 12.5, Systat Software Inc., San Jose CA) and normalized to the lower asymptote of each binding curve. […] Since the assay involves interactions between ligand and LBD, and ligand-dependent interactions between the LBD and fluorescein-labeled co activator, the binding assay data were interpreted by simulating these coupled chemical reactions using the biochemical simulator COPASI version 4.3.[23], [54]
The readout of the Lanthascreen TR-FRET binding assay is based on a Forster resonance energy transfer (FRET) signal generated from the interaction between a terbium-labelled anti-glutathione-S-transferase (GST) antibody and a fluorescein-labelled coactivator peptide. The RAR ligand-binding domain (LBD) is a GST fusion protein and interaction between the LBD and the fluorescein-labelled coactivator peptide is driven by the binding of ligand to the LBD, and detected by the FRET signal from the terbium/fluorescein interaction when the terbium-labelled anti-GST binds the LBD fusion protein. The output of the assay thus relies on two binding interactions: ligand with LBD, and ligand-bound LBD with the coactivator peptide. As both interactions may be affected by the fit of ligand to the binding pocket of the LBD, we used the biochemical pathway simulator COPASI^1 to build a simple model of how the FRET signal output in the assay will vary according to differential changes in the kinetics of the two binding interactions. Reactions were modelled deterministically using mass-action kinetics described by ordinary differential equations (ODE) within COPASI.^1 This model enables us to assess the effect of different rate constants and varying ligand concentration on the formation of the final ternary complex that is the read-out from the Lanthascreen TR-FRET assay.

TERA2.cl.SP12 cells = test: Immunocytochemistry for A2B5, TUJ-1 and cytokeratin 8; type: cell-based, human; conditions: for expression of epithelial phenotype marker cytokeratin 8: 10 μM, 1, 2 and 3 weeks, Fig. 7D; for neuronal differentiation by TUJ-1 staining: up to 3 weeks
Description: Third, we carried out assessment of protein expression using immunofluorescent techniques on cultures of TERA2.cl.SP12 cells treated with retinoids.
TERA2.cl.SP12 cells were seeded at 5000 cells per well on poly-D-lysine (25 μg/ml) coated cover slips in 6-well plates. Cells were treated with each retinoid at a concentration of 10 μM for 7, 14 and 21 days (the media was changed every 3–4 days). Cells were also treated with 1% DMSO for the same time periods as a […] control. At the end of the treatment period, cells were fixed (4% para-formaldehyde in PBS for 30 min at room temperature (RT) and rinsed with PBS. One set of experiments was used for the cell surface marker A2B5 (diluted 1:100, R&D systems), and the other set was prepared for intracellular staining using 1% Triton-X-100 (Sigma Aldrich) in PBS as a permeabilizing agent for 10 min at RT. Non-specific labeling was blocked by incubation with a solution of 1% goat serum (Sigma Aldrich) containing 0.2% Tween-20 (Sigma Aldrich) in PBS for one hour at RT. The primary antibodies β-III tubulin antibody (TUJ-1) (1:200, Affymetrix eBioscience) and CK-8 antibody (1:500, Affymetrix eBioscience) were diluted in blocking solution and incubated with the cells for 1 h at RT. After washing three times for 15 min with PBS, cells were incubated for 1 h in the dark with anti-mouse FITC-conjugated secondary antibody IgM (1:128, Sigma Aldrich) for A2B5 staining, and anti-mouse Alexafluor 488 IgG (1:600, Invitrogen) for TUJ-1 and CK-8 staining. Hoechst 33,342 nuclear staining dye (1:1000, Molecular Probes) was dissolved in blocking solution after the secondary antibody staining step for nuclear staining.
Immunocytofluorescent images of fixed cells were visualized using a Leica SP5 confocal microscope. Scale bars are shown at 25 μm.

Compound	EC50 [1]	binding-curve upper asymptote (coactivator recruitment), RARβ [1]	expression of epithelial phenotype marker cytokeratin 8 (TERA2.cl.SP12 cells)	neuronal differentiation by TUJ-1 staining (TERA2.cl.SP12 cells; 10 μM, Fig. 7C)	expression of neuronal differentiation marker A2B5 (immunofluorescence) (TERA2.cl.SP12 cells; 10 μM, after 7 days, Fig. 7C)
CCOCCOc1nc(-c2ccc(C(=O)O)cc2)sc1C [GZ18]	56.7 nM	very low asymptotes	more effective	very low activity	
CCOC(=O)c1ccc(-c2nc(-c3ccccc3)c(C)s2)cc1 [GZ22]	136 nM	high asymptote	more effective	very low activity	
Cc1sc(-c2ccc(C(=O)O)cc2)nc1-c1ccc2c(c1)C(C)(C)CCC2(C)C [GZ25]	11 nM		not detectable	most effective	induced
